# Laboratory results as given in patent US20060257481A1, “Sustained release formulation and dosing schedule of leukotriene synthesis inhibitor for human therapy” (deCODE Genetics ehf., priority 2005, published 2006).
# Where “and” joins values, the source holds several entries; their conditions need not be identical. Identical values can stand only once.
# Legend:
# LDL cholesterol = assay: Study DG-031-201: LDL cholesterol; format: in vivo, human; conditions: highest dose; [4%,12%], p<0.001
# Method: (§1) Patients who met the study eligebility criteria were enrolled and randomized into 3 different dose-level groups: (1) 64 patients on 250 mg/day therapy with DG-031 (250 mg q.d.), vs placebo; (2) 64 patients on 500 mg/day therapy with DG-031 (250 mg b.i.d.) vs placebo; and (3) 63 patients on 750 mg/day therapy with DG-031 (250 mg t.i.d.) vs placebo. […] All patients received 3 tablets per day. Treatment periods, 4 weeks in duration each, were separated by a 2-week washout period. The placebo tablets were identical in shape, color, form and taste to the active tablets except that they contained no active drug ingredients. Treatment with DG-031 or placebo was in addition to the subject's standard care, including all medications and treatment plan as prescribed by the subject's cardiologist prior to enrolment. A total of 191 subjects were enrolled, with 172 completing all 8 visits or 8 patients short of the target of 180 patients.
# 12% for MPO ([2%,21%], p=0.02) at the 750 mg/day dose of DG-031. […] Urine levels of LTE4 increased by 27% in response to the highest dose of DG-031 ([15%,40%], p<0.001). Significant correlation was observed between the change of LTB4 and MPO production (r=0.62 [0.51,0.70], p<0.001) within a period, also when considering only those taking drug where the range of these changes were larger. Correlation was also observed for these variables at baseline. […]
# [1] = system: LTB4 produced by ionomycin-activated neutrophils ex vivo; assay: Study DG-031-201: LTB4 in whole blood ex vivo after ionomycin activation (ELISA); set-up: species or system human
# Method: as §1
# (§2) The primary objective was to determine whether the FLAP inhibitor has a statistically significant effect, compared to placebo, on one or more biomarkers of MI risk, including: (1) ionomycin-induced LTB4 and MPO release by neutrophils ex vivo; (2) MPO, CRP, N-tyrosine, Lp-PLA2 or amyloid A in serum, or (3) LTE4 in urine. The secondary objective was to determine whether the effect of DG-031 was dose-dependent. The tertiary objective was to assess other biomarkers (See Results). Evaluation of safety and tolerability of the drug was also a primary endpoint.
# All data were analyzed according to a pre-established statistical analysis plan (SAP) and by intention-to-treat (ITT). Each arm of the study, as well as pooled sets (combining dose levels), was considered for the primary analysis. Each such set is an AB/BA cross-over design and in the primary analysis of efficacy, the levels of biomarkers of MI risk at the end of the treatment periods (visits 4 and 7) were used as primary response variables. The difference between DG-031 and placebo treatment was the primary outcome, assessed separately for each of the biomarkers. Treatment effect was tested using a two-sample t-test on the period differences for suitably transformed response variables, under an assumption of normality of the transformed data. We report treatment effect as one half of the observed mean differences in the two-sample t-test, with a 95% CI. No pre-tests for carry-over effect were performed as a part of the primary analysis. Tests for carry-over were done and are reported separately from results of primary analysis. All hypotheses were tested at a two-sided nominal significance level of 0.05 and p-values based on t-tests are reported. In addition, for the primary efficacy endpoints where the effects of the two highest doses on 10 primary variables were studied, a randomization test was performed which corrects for multiple testing and ensures that the key results are not affected by distributional concerns. In particular, 1 million permutations of the patients into the different study tracks were performed, generating a reference distribution for the maximum of the 10 t-statistics of the biomarkers under the null hypothesis of no drug effect. By comparing the observed t-statistic of each of the 10 biomarkers to this reference distribution, empirical p-values were computed. As was stated in the SAP prior to unblinding, it was considered likely that experimental manipulations would alter the effect of the drug on two of the primary markers; this was indeed the case and we are only reporting directly on 8 of the 10 primary markers but all 10 are included in the randomization test.
# Biomarker measurements: The ELISA and mass spectrometry assays used are described in the following references: Profita et al., J Pharmacol Exp Ther. 300:868-75, 2002; Roberts et al., Clin Chem. 47:418-25, 2001; Dada et al., Expert Rev Mol Diagn. […]
# [2] = system: LTB4 production in human whole blood; assay: In vitro LTB4 production in human whole blood after ionomycin stimulation; format: cell-based
# Method: (§3) Neutrophils and other cells in human whole blood respond in vitro to activation by a calcium ionophore (e.g., ionomycin), with an increase in LTB4 production and with coupled release of MPO stimulated in part by LTB4 production in the assay. The effect of DG-031 on the capacity for production of LTB4 in vitro after ionomycin stimulation was evaluated at concentrations ranging from 0.1 μM up to 240 μM.
# Lp-PLA2 = assay: Study DG-031-201 cross-over trial: Lp-PLA2; format: in vivo, human; conditions: highest dose; [3%,16%], p=0.006
# Method: as §1, with “patients. […]” for “patients.”
# (§4) All data were analyzed according to a pre-established statistical analysis plan (SAP) and by intention-to-treat (ITT). […] The difference between DG-031 and placebo treatment was the primary outcome, assessed separately for each of the biomarkers. […]
# MPO = assay: Study DG-031-201: MPO in plasma; format: in vivo, human; conditions: difference visit 2 to visit 5; 500 and 750 mg/day vs placebo cohort
# Method: as §1, with “patients. […]” for “patients.”
# as §4
# [3] = system: MPO release by neutrophils and other cells in human whole blood; assay: In vitro MPO release in human whole blood after ionomycin stimulation; format: cell-based
# Method: as §3
# [4] = system: LTB4 produced by ionomycin-activated neutrophils ex vivo; assay: Study DG-031-201: LTB4 in whole blood ex vivo after ionomycin activation, mass spectrometry; set-up: species or system human
# Method: as §1, §2
# All data were analyzed according to a pre-established statistical analysis plan (SAP) and by intention-to-treat (ITT). Each arm of the study, as well as pooled sets (combining dose levels), was considered for the primary analysis. Each such set is an AB/BA cross-over design and in the primary analysis of efficacy, the levels of biomarkers of MI risk at the end of the treatment periods (visits 4 and 7) were used as primary response variables. The difference between DG-031 and placebo treatment was the primary outcome, assessed separately for each of the biomarkers. Treatment effect was tested using a two-sample t-test on the period differences for suitably transformed response variables, under an assumption of normality of the transformed data. We report treatment effect as one half of the observed mean differences in the two-sample t-test, with a 95% CI. No pre-tests for carry-over effect were performed as a part of the primary analysis. Tests for carry-over were done and are reported separately from results of primary analysis. All hypotheses were tested at a two-sided nominal significance level of 0.05 and p-values based on t-tests are reported. […]
# [5] = difference visit 2 to visit 5, 500 and 750 mg/day vs placebo cohort
smiles,measurement,setting,value
"O=C(O)[C@@H](c1ccc(OCc2ccc3ccccc3n2)cc1)C1CCCC1 [DG-031, (R)-(+)-alpha-cyclopentyl-4-(2-quinolinylmethoxy)-Benzeneacetic acid]",Increase in LDL cholesterol,LDL cholesterol,8%
same,Reduction of capacity for LTB4 production,"[1]; 250 mg BID dose group, p=0.1",18%
same,LTB4 production,"[1]; 250 mg BID, Study 201, NS",−18%
same,Reduction of capacity for LTB4 production,"[1]; 250 mg QD dose group, p=0.22",13%
same,LTB4 production,"[1]; 250 mg QD, Study 201, 64 subjects, NS",−13%
same,Reduction of capacity for LTB4 production,"[1]; 250 mg TID dose group, p=0.008",34%
same,LTB4 production,"[1]; 250 mg TID, St. 201, p = 0.008",−34% (St. 201)
same,Reduction of capacity for LTB4 production,"[1]; 250 mg TID, at steady state Cmin, [0%,56%], p=0.02",30%
same,Reduction of capacity for LTB4 production,"[1]; combined dose groups of 500 mg and 750 mg TDD, p=0.003",about 26%
same,Expected reduction of capacity for LTB4 production at peak concentration,"[2]; 250 mg TID peak, assuming ex vivo parallels in vitro response",about 65%
same,Expected reduction of capacity for LTB4 production at Cmin,"[2]; 250 mg TID, concentrations above 2-3 μg/ml, assuming ex vivo parallels in vitro response",≥ 30%
same,IC50,"[2]; human whole blood, ionomycin stimulation, read-out: in vitro IC50, capacity for LTB4 production",~3 µM and ~1.1 µg/mL
same,Increase of Lp-PLA2,Lp-PLA2,9%
same,"Carry-over effect, MPO in plasma",MPO,−0.11
same,Concentration at which MPO release is maximally inhibited in vitro,[3],~2 μg/ml and about 6 μM
same,Maximum reduction in LTB4 production,"[4]; 750 mg/day, [10%,39%], p=0.003",26%
same,"Carry-over effect, LTB4 in whole blood, corr. for wbc, m.s.",[4]; [5],0.12
same,"Carry-over effect, LTB4 in whole blood, mass spec.",[4]; [5],0.19
same,Reduction of LTB4 produced by ionomycin-activated neutrophils ex vivo,"[4]; pooled set of 500 mg and 750 mg arms, [6%,27%], nominal p=0.004",17%
